Data on 2 compounds can be found in PMC10053925, “Virtual Screening of Novel 24-Dehydroxysterol Reductase (DHCR24) Inhibitors and the Biological Evaluation of Irbesartan in Cholesterol-Lowering Effect” (Molecules, 2023).

In test [1] the target is T1, 3β-hydroxysterol-Δ(24)-reductase (DHCR24) (Homo sapiens, UniProt Q15392).
T1 construct: DHCR24 immunoprecipitated from HepG2 cells infected with Ad-cmv-DHCR24 (antibody-DHCR24 complex)
T1 sequence (Q15392 23-516): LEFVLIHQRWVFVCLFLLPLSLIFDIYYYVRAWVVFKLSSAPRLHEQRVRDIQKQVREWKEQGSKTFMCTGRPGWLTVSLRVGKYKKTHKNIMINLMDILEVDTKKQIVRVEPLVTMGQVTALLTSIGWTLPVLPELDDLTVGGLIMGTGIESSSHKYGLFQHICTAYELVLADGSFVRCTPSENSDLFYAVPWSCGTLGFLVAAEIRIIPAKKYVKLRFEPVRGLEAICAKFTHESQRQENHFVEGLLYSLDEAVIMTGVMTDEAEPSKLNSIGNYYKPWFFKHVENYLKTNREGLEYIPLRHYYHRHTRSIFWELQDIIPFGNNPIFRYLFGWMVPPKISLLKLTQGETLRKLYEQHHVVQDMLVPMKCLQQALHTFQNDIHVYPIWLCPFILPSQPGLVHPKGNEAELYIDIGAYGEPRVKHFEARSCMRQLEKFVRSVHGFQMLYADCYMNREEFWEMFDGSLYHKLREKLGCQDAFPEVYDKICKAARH
Kind of test: immune complex-activity assay; HPLC of desmosterol to cholesterol conversion. The format is biochemical.

Test [2] deals with T1, 3β-hydroxysterol-Δ(24)-reductase (DHCR24). Kind of test: in vitro turnover to cholesterol by immunoprecipitated DHCR24, HPLC. The format is biochemical.

Each structure is given as a SMILES string.

Regarding `CCCCC1=NC2(CCCC2)C(=O)N1Cc1ccc(-c2ccccc2-c2nnn[nH]2)cc1` [IRB, Irbesartan], the 50% inhibitory concentration (IC50) (in general, the concentration that gives 50% inhibition) in test [1] is 0.602 µM.

As for `CC(C)=CCC[C@@H](C)[C@H]1CC[C@H]2[C@@H]3CC=C4C[C@@H](O)CC[C@]4(C)[C@H]3CC[C@]12C` [DES, desmosterol], the “in vitro turnover to cholesterol by immunoprecipitated DHCR24, HPLC” value in test [2] is “desmosterol in the system can be catalyzed into cholesterol only in the presence of the DHCR24 enzyme”.
